Columns and labels:
[1] = system: drug-resistant Enterobacteriaceae strains; experiment: Checkerboard combination, summary over Enterobacteriaceae strains; assay type: cell-based; conditions: combined with avibactam; all of the 12 drug-resistant Enterobacteriaceae strains tested
Experimental: Mueller-Hinton broth (MH broth) medium, Trypticase Soy Broth (TSB Broth) medium, purchased from BD Difco, Cockeysville, MD, USA; • 96-well plate: Corning Costar, Cambridge, MA, USA; • Test method: the checkerboard dilution method was used for determination.
(1) Preparation of the test samples: 4 mg of each sample was taken and was prepared into a test solution at 2,048 μg/mL with MH broth, and the test solution was diluted two-fold in a 96-well plate to prepare solutions of a series of gradient concentrations.
(2) Preparation of a bacteria solution: The test strains were amplified by Trypticase Soy Broth (TSB Broth) according to the CLSI/NCCLS standard.
(3) Addition of the samples: 10 μL of the bacteria solution with a concentration of 6×10^5 CFU/mL was pipetted into each well of the 96-well plate. Each well contained the antibacterial drugs (the compound of formula (I-1) and the compound of formula (I-2)) diluted two-fold with broth and the aforementioned lactamase inhibitor or efflux pump inhibitor. […] The samples were mixed thoroughly. Three parallel experiments were set up for each concentration and the results were averaged. […]
(5) Calculation: The in vitro effect of each drug-inhibitor combination was analyzed by calculating the FICI value: FICI=(MIC of drug A in the combination/MIC of drug A alone)+ (MIC of drug B in the combination/MIC of drug B alone). […]

Klebsiella pneumoniae = experiment: Combined in vitro use, checkerboard dilution method; assay type: cell-based
Procedure, shortened: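 Checkerboard two-fold dilutions of drug (2,048 μg/mL stock) plus lactamase or efflux pump inhibitor in MH broth, inoculated with bacteria at 6×10^5 CFU/mL (suspension concentration), 37° C for 18 hours. Growth scored visually. FICI computed from MICs in combination versus alone; triplicates, three separate days, averaged.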

CC1(C)[C@H](NC(=O)/C(=N\OC2(C(=O)O)CC2)c2csc(N)n2)C(=O)N1OS(=O)(=O)O [Compound of formula (I-1)]
change of MIC values on combination [1]: significantly reduced
MIC in combination (Klebsiella pneumoniae; compound of formula (I-1) combined with avibactam, Klebsiella pneumoniae ATCC 2146): 0.5 µg/mL
MIC in combination (Klebsiella pneumoniae; compound of formula (I-1) combined with avibactam, Klebsiella pneumoniae ATCC 700603): 0.5 µg/mL
MIC in combination (Klebsiella pneumoniae; compound of formula (I-1) combined with avibactam, Klebsiella pneumoniae CCPM(A)-0814R18): 0.25 µg/mL
MIC in combination (Klebsiella pneumoniae; compound of formula (I-1) combined with avibactam, Klebsiella pneumoniae CCPM(A)-0814R33): 0.25 µg/mL
MIC in combination (Klebsiella pneumoniae; compound of formula (I-1) combined with avibactam, Klebsiella pneumoniae CCPM(A)-0817R61): 1 µg/mL
MIC in combination (Klebsiella pneumoniae; compound of formula (I-1) combined with avibactam, Klebsiella pneumoniae CCPM(A)-081705): 0.5 µg/mL
MIC in combination (Klebsiella pneumoniae; compound of formula (I-1) combined with avibactam, Klebsiella pneumoniae CCPM(A)-081715): 0.5 µg/mL
MIC in combination (Klebsiella pneumoniae; compound of formula (I-1) combined with avibactam, Klebsiella pneumoniae CCPM(A)-081716): 0.25 µg/mL
MIC in combination (Klebsiella pneumoniae; compound of formula (I-1) combined with avibactam, Klebsiella pneumoniae CCPM(A)-081729): 0.5 µg/mL
MIC in combination (Klebsiella pneumoniae; compound of formula (I-1) combined with relebactam, Klebsiella pneumoniae ATCC 2146): 0.5 µg/mL
MIC in combination (Klebsiella pneumoniae; compound of formula (I-1) combined with relebactam, Klebsiella pneumoniae ATCC 700603): 0.125 µg/mL
MIC in combination (Klebsiella pneumoniae; compound of formula (I-1) combined with vaborbactam, Klebsiella pneumoniae ATCC 700603): 0.5 µg/mL
MIC in combination (Klebsiella pneumoniae; compound of formula (I-1) combined with vaborbactam, Klebsiella pneumoniae CCPM(A)-0814R33): 0.5 µg/mL
